For series [1], the system named is NS5A chimeric genotype 1b Con1 replicon with genotype 3a S52 strain NS5A gene. The series is described as follows: Replicon assay, genotype 3a NS5A chimera. It is filed as cell-based, HCV. As to conditions: Hepatitis C virus.
Series [2] deals with NS5A chimeric genotype 2a JFH-1 replicon with genotype 2b MD2b-1 strain NS5A gene (M31 present). Put plainly: Replicon assay, genotype 2b NS5A chimera. As to conditions: Hepatitis C virus. The format is cell-based, HCV. In a few lines: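 EC50 was fitted by non-linear regression to Renilla luciferase signal after 72 h of exposure to 3-fold serially diluted compound (10 mM DMSO stocks). Controls were DMSO (none) and ITMN-191 above 100×EC50 (full). Chimeric 2a replicons were used either stable or transiently transfected into Huh-Lunet cells.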
In general terms: A replicon is a self-replicating genome or part of one, used to study replication in cells.

Series [3] concerns stable HCV 1b RLuc replicon cells (dicistronic genotype 1b Con1 replicon). The series is described as follows: Renilla luciferase HCV replicon reporter assay, genotype 1b. It is filed as cell-based. As to conditions: Hepatitis C virus, 72 h, stable 1b Con1 RLuc replicon cells, 72 hours; read-out: 1b. In a few lines:
(§1)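 72 h compound exposure (3-fold dilutions from 10 mM DMSO stocks) of replicon cells: stable dicistronic RLuc 1a H77, 1b Con1, 2a JFH-1 (NS5A L31); J6-NS5A chimera in JFH-1 (M31), transient in Huh-Lunet or stable. Renilla luciferase read-out, non-linear regression → EC50. DMSO negative control.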

Series [4] deals with Q30R in genotype 1a NS5A (1a Pi-Rluc replicon, Huh-7-derived cured-51 cells). The series is described as follows: Replicon assay against resistance mutant 1a Q30R. It is filed as cell-based, HCV. The settings on record: Hepatitis C virus. In a few lines: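 Q30R introduced by site-directed mutagenesis into the 1a Pi-RLuc replicon; replicon RNA transiently transfected into cured-51 cells. Cells treated with 3-fold serially diluted compound for 72 h, then lysed and Renilla luciferase measured; EC50 by non-linear regression.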

Series [5] deals with NS5A chimeric genotype 2a JFH-1 replicon with genotype 2a J6 strain NS5A gene (M31 present). Put plainly: Replicon assay, genotype 2a J6 NS5A chimera. The format is cell-based, HCV. As to conditions: Hepatitis C virus. The essentials: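 Cells carrying the stable or transiently transfected (Huh-Lunet) dicistronic RLuc replicons received 3-fold serial compound dilutions from 10 mM DMSO stocks. After 72 h, cells were lysed and Renilla luciferase read. DMSO served as the no-inhibition control and ITMN-191 above 100×EC50 as the positive control; EC50 by non-linear regression.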

In series [6] the test system is stable HCV 1a RLuc replicon cells (dicistronic genotype 1a H77 replicon). Put plainly: Renilla luciferase HCV replicon reporter assay, genotype 1a. The format is cell-based. The settings on record: Hepatitis C virus, 72 h, stable 1a H77 RLuc replicon cells. In a few lines: as §1
Series [7] can be described thus: IV and PO single dose pharmacokinetic studies in SD rats. The format is in vivo, male Sprague-Dawley (SD) rats. The settings on record: Sprague-Dawley, rat, plasma, male SD rats, PO 2 mg/kg vs IV infusion 1 mg/kg, read-out: Rat % F. The essentials:
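Fasted male Sprague-Dawley rats (250-300g, n=3/group) were given 1 mg/kg IV as a 30-min jugular infusion (5% ethanol/35% PEG 400/water pH 2.0) or 2 mg/kg by oral gavage (5% ethanol/55% PEG 400/citrate pH 2.2). Plasma was sampled to 24 h and analysed by LC/MS/MS. Non-compartmental parameters were derived, and %F was calculated from the oral/IV AUC ratio.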

Series [8] relates to stable HCV 2a JFH-1 Rluc replicon cells (L31 present in NS5A). The series is described as follows: Renilla luciferase HCV replicon reporter assay, genotype 2a JFH-1. The format is cell-based. The settings on record: Hepatitis C virus. In a few lines:
as §1

Series [9] has as its system NS5A chimeric genotype 1b Con1 replicon with genotype 4a ED43 strain NS5A gene. Put plainly: Replicon assay, genotype 4a NS5A chimera. The format is cell-based, HCV. The settings on record: Hepatitis C virus.
[10] abbreviates: read-out: 3a (s) (nM), genotype 3a NS5A chimeric replicon, stable replicon cells (s).
The mark [11] stands for this setting: read-out: 3a (s), (s), activity range.
[12] abbreviates: read-out: 3a (t) (nM), genotype 3a NS5A chimeric replicon, transiently transfected (t).
[13] abbreviates: read-out: 3a (t), transiently transfected (t) into Huh-Lunet cells, activity range.
The mark [14] stands for this setting: 2BS, read-out: 2b (s), stably replicating replicon cells (s), activity range.
Setting [15] is: read-out: 2b (s) (nM), genotype 2b MD2b-1 NS5A chimeric replicon (M31), stably replicating replicon cells (s).
The mark [16] stands for this setting: read-out: 2a J6 (t) (nM), genotype 2a J6 NS5A chimeric replicon (M31), transiently transfected (t) into Huh-Lunet cells.
The mark [17] stands for this setting: read-out: 2a J6 (t), transiently transfected (t) into Huh-Lunet cells, activity range.
Where [18] appears, read: read-out: 2a JFH (nM), genotype 2a JFH-1 replicon (L31 in NS5A), stable cells.
[19] abbreviates: read-out: 2a JFH, stable 2a JFH-1 Rluc replicon cells, L31 in NS5A, activity range.
Setting [20] is: read-out: 4a (s) (nM), genotype 4a NS5A chimeric replicon, stable replicon cells (s).
Setting [21] is: read-out: 4a (s), (s), activity range.

Read-outs that look alike come from different tables or passages of the source.

For `CC[C@H](C)C(NC(=O)OC)C(=O)N1[C@@H](C)CC[C@H]1c1nc2ccc3cc4c(cc3c2[nH]1)OCc1cc(-c2cnc([C@@H]3CC[C@H](C)N3C(=O)[C@@H](NC(=O)OC)[C@@H](C)OC)[nH]2)ccc1-4` (stereo partly drawn) [EH, methyl{(3S)-1-[(2S,5S)-2-(9-{2-[(2S,5S)-1-{(2S,3R)-3-methoxy-2-[(methoxycarbonyl)amino]butanoyl}-5-methylpyrrolidin-2-yl]-1H-imidazol-5-yl}-1,11-dihydroisochromeno[4′,3′:6,7]naphtho[1,2-d]imidazol-2-yl)-5-methylpyrrolidin-1-yl]-3-methyl-1-oxopentan-2-yl}carbamate], the EC50 in [1] (setting [10]) was 0.022 nM; in [1] (setting [11]), less than 0.1 nM; in series [1] (setting [12]) it was 0.024 nM; in series [1] (setting [13]), less than 0.1 nM; in series [2] (setting [14]) it was 0.1 to 0.999 nM; in [2] (setting [15]), 0.153 nM. The EC50 in [3] was 15 pM; in series [4] (read-out: 1a Q30R), less than 0.1 nM; in [4] (read-out: 1a Q30R (nM)), 0.082 nM; in series [5] (setting [16]), 0.086 nM; in [5] (setting [17]) it was less than 0.1 nM; in series [6], 11 pM. For the same molecule, the EC50 is less than 100 pM in series [6] (activity range); 0.013 nM in series [8] (setting [18]); less than 0.1 nM in [8] (setting [19]); 0.006 nM in [9] (setting [20]); less than 0.1 nM in [9] (setting [21]). Further, in [7], the bioavailability was 15.8%.
Take `COC[C@H]1C[C@@H](c2nc(Cl)c(-c3ccc4c(c3)COc3cc5c(ccc6nc([C@@H]7CC[C@H](C)N7C(=O)[C@@H](NC(=O)OC)C(C)C)[nH]c65)cc3-4)[nH]2)N(C(=O)[C@H](NC(=O)OC)c2ccccc2)C1` [FY, Methyl {(1R)-2-[(2S,4S)-2-(4-chloro-5-{2-[(2S,5S)-1-{(2S)-2-[(methoxycarbonyl)amino]-3-methylbutanoyl}-5-methylpyrrolidin-2-yl]-1,11-dihydroisochromeno[4′,3′:6,7]naphtho[1,2-d]imidazol-9-yl}-1H-imidazol-2-yl)-4-(methoxymethyl)pyrrolidin-1-yl]-2-oxo-1-phenylethyl}carbamate]: the EC50 is 0.029 nM in series [1] (setting [10]); less than 0.1 nM in series [1] (setting [11]); less than 0.1 nM in series [2] (setting [14]); 0.034 nM in series [2] (setting [15]); 17 pM in series [3]; less than 0.1 nM in [4] (read-out: 1a Q30R). Further, the EC50 in [4] (read-out: 1a Q30R (nM)) is 0.017 nM; in series [5] (setting [16]), 0.005 nM; in series [5] (setting [17]), less than 0.1 nM; in series [6], 10 pM; in series [6] (activity range), less than 100 pM; in series [8] (setting [18]) it was 0.007 nM. Also, the EC50 was less than 0.1 nM in [8] (setting [19]), 0.005 nM in series [9] (setting [20]) and less than 0.1 nM in [9] (setting [21]). The bioavailability in [7] was 13.5%.
In the case of `COC(=O)N[C@H](C(=O)N1[C@@H](C)CC[C@H]1c1ncc(-c2ccc3c(c2)COc2cc4c(ccc5nc([C@@H]6C[C@@H]7CCC[C@@H]7N6C(=O)[C@@H](NC(=O)OC)C6CCOCC6)[nH]c54)cc2-3)[nH]1)C(C)C` [IA], the EC50 in series [1] (setting [10]) was 0.052 nM; in series [1] (setting [11]), less than 0.1 nM; in series [1] (setting [12]), 0.055 nM; in series [1] (setting [13]) it was less than 0.1 nM; in series [2] (setting [14]), less than 0.1 nM; in [2] (setting [15]) it was 0.062 nM. Moreover, the EC50 in series [2] (read-out: 2b (t) (nM), genotype 2b MD2b-1 NS5A chimeric replicon (M31), transiently transfected (t)) is 0.033 nM; in series [2] (read-out: 2b (t), transiently transfected (t) into Huh-Lunet cells, activity range), less than 0.1 nM; in series [3], 24 pM; in [4] (read-out: 1a Q30R) it was less than 0.1 nM; in series [4] (read-out: 1a Q30R (nM)) it was 0.024 nM; in series [5] (setting [16]), 0.024 nM. Moreover, the EC50 in series [5] (setting [17]) is less than 0.1 nM; in series [6], 15 pM; in series [6] (activity range), less than 100 pM; in series [8] (setting [18]), 0.021 nM; in series [8] (setting [19]), less than 0.1 nM; in series [9] (setting [20]) it was 0.019 nM. In series [9] (setting [21]), the EC50 was less than 0.1 nM. The bioavailability in series [7] was determined as 21.8%.

Values taken from patent publication US10800789B2, “Antiviral compounds” (Gilead Pharmasset LLC, priority 2012, dated 2020).
